Reference: US10729718B2, “Substances containing AuCs and preparation method and use thereof” (Shenzhen Profound-View Pharma Tech Co., Ltd, priority 2016, dated 2020)

Experiments:
[1] = tested on: SH-sy5y cells; test: MPP+ induced PD cell (SH-sy5y) model, Experiment 2, CCK-8; assay type: cell-based; conditions: 1 mM MPP^+ and ligand 20 ppm, 24 h; model control 65.1±4.0%
[2] = target: T1, α-syn (Homo sapiens, UniProt P37840); test: In vitro α-syn aggregation kinetics (ThT fluorescent labeling method); assay type: biochemical; conditions: ligand only (L-NIBC 1.0 and 10.0 ppm), 35 μM α-syn, 37° C.
T1 construct: purchased Bachem Corp
Source text: Thioflavin T (abbreviation: ThT) is a dye for dyeing amyloid fibers specifically. […] When it encounters amyloid polypeptide or protein with a fiber structure, it will immediately couple with the amyloid polypeptides or proteins and its fluorescence intensity will increase exponentially. For this reason, ThT is widely used as markers to monitor amyloidosis of peptides or proteins. This embodiment utilizes ThT fluorescent labeling method to monitor the kinetics process of fibrosis aggregation of α-syn with the existence of AuCs. The specific experiment method was as follows:
Pretreatment of α-syn monomers: Freeze-dried powder (Bachem Corp.) of α-syn was dissolved in HFIP to obtain a 1 g/L α-syn solution. The solution was incubated at room temperature for 2-4 h after sealing, then blowed to dry HFIP by high-purity nitrogen in a fume hood. […]
Sample preparation and detection: Ligand-modified AuCs in different concentrations listed in Table 1 were added to 35 μM α-syn PBS solutions respectively, and incubated continuously in a 96-well plate at 37° C., by ThT fluorescent labeling method, and were monitored the fluorescence intensity by microplate reader once every 10 minutes. The kinetic process of α-syn aggregation was characterized through the change of fluorescence intensity of ThT. […]

[3] = target: T2, Aβ(1-40) (Homo sapiens, UniProt P05067); test: AFM topography of Aβ(1-40) after coincubation for 48 h; assay type: biochemical; conditions: coincubated with Aβ(1-40) for 48 h
T2 construct: Freeze-dried powder of amyloid polypeptide Aβ(1-40) (Invitrogen Corp.); purchased Invitrogen Corp
Method: Panel A is the AFM topography after Aβ(1-40) was incubated alone for 48 h. Panel B is an AFM topography after Aβ(1-40) was coincubated with L-NIBC for 48 h. Panel C and panel D are AFM topographies after Aβ(1-40) was coincubated with gold nanoparticles with an average particle size of 6.0 nm and 3.6 nm respectively (modified with L-NIBC) for 48 h. And panel E is an AFM topography after Aβ(1-40) was coincubated with AuCs in an average particle size of 1.8 nm (modified with L-NIBC) for 48 h.

[4] = tested on: SH-SY5Y neuroblastoma cell line; test: Aβ induced AD cell model, cell viability by CCK-8 method; assay type: cell-based; conditions: 0.01-20 ppm (L-NIBC 20 ppm); 20 μM Aβ(1-40), 24 h
Method: The cell viability was used as an index in the experiment of this embodiment. […] The cells used in the experiment were SH-SY5Y neuroblastoma cell line. […] Specific method:
1) SH-sy5y cells (cells had passed to the sixth generation) in logarithmic growth phase were diluted with complete medium (MEM+10% FBS+1% penicillin-streptomycin) to get a cell suspension in a density of 5×10^4/mL. The suspension was inoculated 200 μL per well into a 96-well plate, and cultivated in an incubator with 5% CO2 at 37° C. A sample was added when the cells attached to the wells.
2) 100 μL ligand-modified AuCs samples or ligand-modified gold nanoparticles samples, at different particle sizes and at concentrations of 0.04 ppm, 0.4 ppm, 4 ppm, 20 ppm, 40 ppm and 80 ppm respectively, which were dissolved by maintenance medium (MEM+2% FBS+1% penicillin-streptomycin) were added into the incubated suspension obtained from Step 1). After incubating in the incubator for 2 h, 100 μL 80 μM Aβ(1-40) was added, and then the mixture was incubated in the incubator for 24 h. […] The culture medium was removed, maintenance medium (MEM) containing 10% CCK-8 at 100 μL/well was added and was incubated for 4 h, the absorbance of each well at 450 nm was measured to reflect the prevention and treatment effects of ligand-modified AuCs on Aβ(1-40) lesion.

[5] = target: T2, Aβ(1-40); test: In vitro Aβ aggregation kinetic experiment (ThT fluorescent labeling method); assay type: biochemical; conditions: ThT fluorescence, 20 μM Aβ(1-40), 37° C., up to 20.0 ppm (L-NIBC 1.0 and 10.0 ppm)
Source text: Thioflavin T (abbreviation: ThT) is a dye specifically for dyeing amyloid fibers. […] When it encounters amyloid polypeptides or proteins with a fiber structure, it will immediately couple with the amyloid polypeptides or proteins and its fluorescence intensity will increase exponentially. Just because of this property, ThT is widely used as a marker to monitor amyloidosis of peptides or proteins. The fibrosis process of Aβ(1-40) is also a nucleation-controlled polymerization process. Therefore, the growth curve of Aβ(1-40) fiber measured by ThT fluorescent labeling method is mainly divided into three stages: Initial stage, growth stage and platform stage. […] All the Aβ(1-40) PBS solutions for the experiments were prepared freshly. […] The samples were incubated continuously in a 96-well plate at 37° C. by ThT fluorescent labeling method, and monitored the fluorescence intensity by microplate reader once every 10 minutes.

T2 sequence (P05067 672-711 limits assumed): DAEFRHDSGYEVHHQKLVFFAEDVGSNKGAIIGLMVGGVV

- effect on kinetics of α-syn aggregation [2]: did not have an obvious effect
- formation of Aβ(1-40) fibers (AFM topography) [3]: no obvious effect
- effect on Aβ(1-40) amyloidosis / aggregation kinetics [5]: no obvious effect
Structure (SMILES): CC(C)C(=O)N[C@@H](CS)C(=O)O [L-NIBC, N-isobutyryl-L-cysteine]
- cell viability of the ligand control group [1]: 61.5±3.8%
- effect on cell viability of Aβ induced AD cell model [4]: did not improve cell viability
